From US8697629B2, “Modulation of intracellular signaling” (Angstrom Pharmaceuticals, Inc., priority 2010, dated 2014)

Experiments:
Format in all cases: cell-based
[1] = tested on: SKOV3 cells; test: Boyden chamber chemotaxis/migration of SKOV3 cells; details: SKOV3
Procedure: A2780 (FIG. 10a) and SKOV3 (FIG. 10b) cells were incubated with the indicated concentrations of Å6 peptide for 30 min at 37° C. Aliquots representing 6,000 cells were placed on quadruplicate, CnI-coated filters (8 μm pores) in Boyden chambers and the cells allowed to migrate overnight in response to 10 ng/ml VEGF in NIH3T3-conditioned media containing the indicated concentrations of Å6. Upon completion of migration, the apical surfaces of the membranes were wiped clean and the migrating cells on the basal surface were stained with Geimsa stain and the cells present in representative fields of the membranes counted. Data represent the averages+/−standard deviations obtained from the replicate filters. […] This provides further confirmation that CD44 is the target for the Å6 peptide.
SKOV3 cells are harvested by trypsinization and washed once with RPMI−0.5% BSA. Next, the cells are re-suspended in RPMI+0.5% BSA @ 6E4/mL (6000 cells/100 μL). The peptide is pre-treated with 500 μL of cells added to 500 μL peptide NASAPPEE (2× concentration, final conc. at 100, 10, 1, 0.1, 0.01, 0.001 uM) and the mixture incubated 30 minutes at 37° C., under 5% CO2. The Boyden chamber is assembled by: Placing in the bottom chambers: 220 μL of serum/BSA free DMEM or NIH3T3CM+10 ng/ml VEGF or NIH3T3CM+10 ng/ml VEGF+peptide. Place 8 μm filters on the top of the bottom chambers. The 8 μm filters are coated with 1 mg/ml collagen I at 4° C. overnight, washed with PBS twice, air dry before use. Add 200 μL of cells with or without peptide pretreatment to the top of Boyden chamber. Note that the peptide is in both top and bottom chambers. Cells migrate overnight at 37° C., under 5% CO2 in incubator. Next, Boyden chambers are disassembled the and filters collected. The cells on the filters after collection are treated with −20° C. methanol for 3 minutes at room temperature and stained with 30% Geimsa for 7 minutes at room temperature, and washed with water twice. The filters are mounted on slides, air dried and the cells counted.
Cell numbers were obtained by counting the cells in four fields of filters using a 40× objective. The cells migrating into the bottom chambers were also counted as follows: a) 200 μL fluid in the bottom chamber was transferred to a well of 96-well plate; b) The plate was centrifuged at 1200 rpm for 5 minutes; c) 180 μL of supernatant was removed; d) The cell pellet was resuspended with the remaining 20 μL fluid and the cells counted using a hemocytometer. […] This compares favorably to the Å6 peptide which is effective between 5 μM and 100 nM.

[2] = tested on: FAK; test: FAK phosphorylation in SKOV3 cells, immunoblot and densitometry; details: SKOV3, all conditions; Y397, Y576/577, Y925
Procedure: (§1) Cells were detached from their culture vessels by brief trypsinization, suspended in complete media and centrifuged at 250×g for 10 min at room temperature. The cell pellets were suspended in Dulbeco's phosphate buffered saline (DPBS) and re-centrifuged for a total of three washes. The cells were then re-suspended at 3.33E5/ml in 24 ml of either RPMI containing 0.5% BSA (Sigma Chem. Co. #A0336) (RPMI/BSA) or the conditioned media of growing NIH3T3 fibroblasts (10% FBS in DMEM) supplemented with 10 ng/ml vascular endothelial growth factor (VEGF) (CMN). The cells were then treated with or without 100 ug/ml soluble hyaluronic acid (HA; human umbilical, Calbiochem #385902) for 30 min at 37° C. under 5% CO2. Aliquots representing 2E6 cells were then plated into 10 cm culture dishes and A6 added to yield final concentrations of 0, 10, 100 and 1000 nM. The cells were cultured overnight (18 hr) at 37° C. under 5% CO2.
(§2) After 18 hr of treatment, the media were aspirated from the 10 cm dishes and saved. The plates were washed 3 times with 4 ml of ice-cold DPBS which were pooled with the reserved non-adherent cells. The non-adherent cells were centrifuged at 250×g for 10 min at 4° C., washed twice with cold DPBS, drained and lysed in 50 ul of cold RIPA buffer (ThermoScientific #89901) containing cocktails of broad spectrum phosphatase inhibitors (Calbiochem #524625; used at 2× final concentration) and protease inhibitors (Sigma #P8340) (RIPA/inh.). The 10 cm dishes were drained of remaining wash and the adherent cells lysed by scraping in 200 μL of cold RIPA/inh. For each test condition, the lysates of the non-adherent and adherent populations were combined, vortexed and then centrifuged at 14,000 rpm at 4° C. for 20 min. Aliquots of the cleared lysates were frozen at −80° C. immediately. A small aliquot was reserved for total protein analysis using a BCA Protein Assay Kit (Calbiochem #71285-3).
(§3) Samples representing 20 μg of total protein of each lysate were solubilized in the presence of 50 mM Tris pH 6.8, 10% glycerol, 2% SDS and 100 mM DTT for 5 min at 95° C. and then loaded onto 10-20% acrylamide gels (BioRad #345-0044, Tris-HCl, 1 mm, 26 well, 15 μL/well). Electrophoresis was performed using Laemli electrophoresis buffer (0.1% SDS, 25 mM Tris, 192 mM glycine) at 200 V, constant voltage, for one hour. Upon completion of electrophoresis, the proteins were transferred to Immun-Blot PVDF membranes (BioRad #162-0238) in ice-cold 20% methanol in 25 mM Tris, 192 mM glycine for 2 hr at 0.5 Amps, constant current/blotting apparatus. […]
(§4) The integrated densities (id) of the bands of interest were measured using Image J software (NIH). […]

[3] = tested on: ERK 1/2; test: ERK 1/2 phosphorylation (T202/Y204) in SKOV3 cells, immunoblot; details: basal media (RPMI/BSA)
Procedure: as §1, §2
(§5) Samples representing 20 μg of total protein of each lysate were solubilized in the presence of 50 mM Tris pH 6.8, 10% glycerol, 2% SDS and 100 mM DTT for 5 min at 95° C. and then loaded onto 10-20% acrylamide gels (BioRad #345-0044, Tris-HCl, 1 mm, 26 well, 15 μL/well). Electrophoresis was performed using Laemli electrophoresis buffer (0.1% SDS, 25 mM Tris, 192 mM glycine) at 200 V, constant voltage, for one hour. Upon completion of electrophoresis, the proteins were transferred to Immun-Blot PVDF membranes (BioRad #162-0238) in ice-cold 20% methanol in 25 mM Tris, 192 mM glycine for 2 hr at 0.5 Amps, constant current/blotting apparatus. The membranes were then cut vertically between molecular weight markers and in half at the 64 kDa marker to generate pieces for screening of higher molecular weight proteins (e.g., FAK) and lower molecular weight proteins (e.g., MEK and GAPDH). The blots were then blocked for a minimum of 4 hrs at room temperature in 3% bovine serum albumin (Sigma A0336) in 50 mM Tris, pH 7.4, 145 mM NaCl, 0.05% Tween-20 (TTBS) containing 0.05% sodium azide.
Upon completion of the primary antibody incubation, the blots were washed three times for 10 min in TTBS and then incubated with 1/25,000 dilutions of peroxidase-conjugated donkey anti-mouse IgG (Jackson ImmunoResearch #715-035-150) or peroxidase-conjugated donkey anti-rabbit IgG (Jackson ImmunoResearch #711-035-152) in TTBS containing 3% BSA for one hour at room temperature. […]

[4] = tested on: PKCalpha; test: PKCalpha phosphorylation in SKOV3 cells, immunoblot
Procedure: as §1, §2
as §5, with “The blots were then blocked for a minimum of 4 hrs at room temperature in 3% bovine serum albumin (Sigma A0336) in 50 mM Tris, pH 7.4, 145 mM NaCl, 0.05% Tween-20 (TTBS) containing 0.05% sodium azide.” left out

[5] = tested on: MEK; test: MEK phosphorylation (S217/221) in SKOV3 cells, immunoblot and densitometry
Procedure: as §1, §2, §3, §4

Substance | cell migration inhibition, lower end of effective concentration range [1] [nM] | cell migration inhibition, upper end of effective concentration range [1] [µM] | pFAK/FAK ratios [2] | pERK/Erk [3] | pPCKa/PKCa [4] | total MEK levels [5] | pMEK/MEK ([5]; under all conditions)
NASAPPEE (peptide which potentiates the binding of CD44 polypeptide expressing cells to hyaluronic acid (HA)) [corresponds to amino acids 120-127 of CD44] | 1 | 100 |  |  |  |  | 
hyaluronic acid [HA, reference compound] |  |  | reduced | increased | appears to have enhanced | appears to have decreased | increased
